Results on six compounds are retold here after patent US12139520B2 (priority 2020, dated 2024).

Structures are written as SMILES. Bridge positions count the residues as written; N and C are the ends. Square brackets hold non-standard residues; d marks the D form. Peptide text beside a SMILES is read from it. Hyp = O=C(O)[C@@H]1C[C@@H](O)CN1

For one data set, the target named is T1, hAMY3 receptor (Homo sapiens, UniProt O60896+P30988).
T1 sequence (P30988 25-474): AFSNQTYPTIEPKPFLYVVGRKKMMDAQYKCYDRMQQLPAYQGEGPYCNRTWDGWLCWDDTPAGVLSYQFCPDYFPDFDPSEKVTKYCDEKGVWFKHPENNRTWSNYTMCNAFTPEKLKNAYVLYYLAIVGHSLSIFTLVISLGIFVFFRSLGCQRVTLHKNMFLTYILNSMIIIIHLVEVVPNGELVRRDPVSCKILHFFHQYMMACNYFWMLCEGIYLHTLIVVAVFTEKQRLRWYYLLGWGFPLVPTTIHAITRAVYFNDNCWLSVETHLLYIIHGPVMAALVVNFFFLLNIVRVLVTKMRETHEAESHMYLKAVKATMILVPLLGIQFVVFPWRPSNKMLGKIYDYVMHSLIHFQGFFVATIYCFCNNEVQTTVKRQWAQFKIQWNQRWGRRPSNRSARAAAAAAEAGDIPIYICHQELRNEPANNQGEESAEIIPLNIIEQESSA
T1 sequence (O60896 24-148 partner): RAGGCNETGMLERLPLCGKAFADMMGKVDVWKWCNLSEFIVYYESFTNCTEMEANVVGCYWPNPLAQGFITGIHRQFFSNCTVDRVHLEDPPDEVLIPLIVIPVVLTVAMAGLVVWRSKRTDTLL
In words: cAMP assay for in vitro receptor activation, hAMY3-R. The class given is cell-based. As to conditions: cAMP assay, hAMY3 receptor; read-out: hAMY3R EC50. A digest of the protocol:
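Stable hAMY3 cells; DPBS + 0.05% casein + 0.5 mM IBMX; graded compound doses, 30 min, RT; cAMP via HTRF Gs kit, TR-FRET read at 1 h.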

A short description of data set [1]: Physical stability of peptide analogues (Thioflavin T fibrillation). It counts as physicochemical. As to conditions: maximum ThT signal normalized between hAMY maximum and buffer background; 40° C., shaking, four days; pH 7 per table title. Summed up: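 Maximum ThT emission at 480 nm, after LOESS smoothing, is given as percent of the span from buffer background to hAMY. Conditions: 50 mM buffer at pH 4 or 7, 4 μM dye, 40 °C, repeated shaking, readings every 10 min for four days.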

Usually EC50 stands for the concentration that produces a half-maximal response. Consider `CC[C@H](C)[C@H](NC(=O)[C@H](CCC(N)=O)NC(=O)[C@H](Cc1c[nH]cn1)NC(=O)[C@H](C)NC(=O)[C@H](CC(C)C)NC(=O)[C@H](Cc1c[nH]c2ccccc12)NC(=O)[C@H](CCC(N)=O)NC(=O)[C@@H](NC(=O)[C@@H](NC(=O)[C@@H]1CSSC[C@H](NC(=O)CN)C(=O)N[C@@H](CCCNC(=N)N)C(=O)N[C@@H](Cc2ccccc2)C(=O)NCC(=O)N[C@@H]([C@@H](C)O)C(=O)N1)[C@@H](C)O)C(C)C)C(=O)N[C@@H](Cc1ccc(O)cc1)C(=O)N[C@@H](CCC(N)=O)C(=O)N[C@@H](Cc1ccccc1)C(=O)N[C@H](C(=O)N[C@@H](CC(=O)O)C(=O)N[C@@H](CCCCN)C(=O)N[C@@H](CC(=O)O)C(=O)N[C@@H](CCCCN)C(=O)N[C@@H](CC(=O)O)C(=O)N[C@@H](CC(N)=O)C(=O)N[C@H](C(=O)N[C@@H](C)C(=O)N1CCC[C@H]1C(=O)N[C@@H](CCCNC(=N)N)C(=O)N[C@H](C(=O)N[C@@H](CCCCN)C(=O)N[C@H](C(=O)NCC(=O)N1CCC[C@H]1C(=O)N[C@@H](CCC(N)=O)C(=O)NCC(=O)N1C[C@H](O)C[C@H]1C(N)=O)C(C)C)[C@@H](C)O)C(C)C)[C@@H](C)O` [compound 322] (H-GCRFGTCTVQWLAHQIYQFTDKDKDNVAPRTKVGPQG[Hyp]-NH2; disulfide 2-7; N-terminus assumed), for which the EC50 at hAMY3 receptor stood at 0.014 nM. In addition, in data set [1], the “Max ThT signal (%)” value was 18.400%.
For `CC[C@H](C)[C@H](NC(=O)[C@H](CC(N)=O)NC(=O)[C@@H](NC(=O)[C@H](CCCNC(=N)N)NC(=O)[C@@H]1CCCN1C(=O)[C@H](C)NC(=O)[C@@H](NC(=O)[C@H](CC(N)=O)NC(=O)[C@H](CC(=O)O)NC(=O)[C@H](CCCCN)NC(=O)[C@H](CC(=O)O)NC(=O)[C@H](CCCCN)NC(=O)[C@H](CC(=O)O)NC(=O)[C@@H](NC(=O)[C@H](Cc1ccccc1)NC(=O)[C@H](CCC(N)=O)NC(=O)[C@H](Cc1ccc(O)cc1)NC(=O)[C@@H](NC(=O)[C@H](CCC(N)=O)NC(=O)[C@H](Cc1c[nH]cn1)NC(=O)[C@H](C)NC(=O)[C@H](CC(C)C)NC(=O)[C@H](Cc1c[nH]c2ccccc12)NC(=O)[C@H](CCC(N)=O)NC(=O)[C@@H](NC(=O)[C@@H](NC(=O)[C@@H]1CSSC[C@H](NC(=O)CN)C(=O)N[C@@H](CCCNC(=N)N)C(=O)N[C@@H](Cc2ccccc2)C(=O)NCC(=O)N[C@@H]([C@@H](C)O)C(=O)N1)[C@@H](C)O)C(C)C)[C@@H](C)CC)[C@@H](C)O)C(C)C)[C@@H](C)O)C(=O)NCC(=O)N1CCC[C@H]1C(=O)N[C@@H](CC(N)=O)C(=O)NCC(=O)N1C[C@H](O)C[C@H]1C(N)=O` [compound 331] (H-GCRFGTCTVQWLAHQIYQFTDKDKDNVAPRTNIGPNG[Hyp]-NH2; disulfide 2-7; N-terminus assumed), the EC50 on hAMY3 receptor stood at 0.006 nM. Besides, the “Max ThT signal (%)” value in data set [1] was 21.150%.
For `CC[C@H](C)[C@H](NC(=O)[C@H](CCCCN)NC(=O)[C@@H](NC(=O)[C@H](CCCNC(=N)N)NC(=O)[C@@H]1CCCN1C(=O)[C@H](C)NC(=O)[C@@H](NC(=O)[C@H](CC(N)=O)NC(=O)[C@H](CC(=O)O)NC(=O)[C@H](CCCCN)NC(=O)[C@H](CC(=O)O)NC(=O)[C@H](CCCCN)NC(=O)[C@H](CC(=O)O)NC(=O)[C@@H](NC(=O)[C@H](Cc1ccccc1)NC(=O)[C@H](CCC(N)=O)NC(=O)[C@H](Cc1ccc(O)cc1)NC(=O)[C@@H](NC(=O)[C@H](CCC(N)=O)NC(=O)[C@H](Cc1c[nH]cn1)NC(=O)[C@H](C)NC(=O)[C@H](CC(C)C)NC(=O)[C@H](Cc1c[nH]c2ccccc12)NC(=O)[C@H](CCC(N)=O)NC(=O)[C@@H](NC(=O)[C@@H](NC(=O)[C@@H]1CSSC[C@H](NC(=O)CN)C(=O)N[C@@H](CCCNC(=N)N)C(=O)N[C@@H](Cc2ccccc2)C(=O)NCC(=O)N[C@@H]([C@@H](C)O)C(=O)N1)[C@@H](C)O)C(C)C)[C@@H](C)CC)[C@@H](C)O)C(C)C)[C@@H](C)O)C(=O)NCC(=O)N1CCC[C@H]1C(=O)N[C@@H](CCC(N)=O)C(=O)NCC(=O)N1C[C@H](O)C[C@H]1C(N)=O` [compound 336] (H-GCRFGTCTVQWLAHQIYQFTDKDKDNVAPRTKIGPQG[Hyp]-NH2; disulfide 2-7; N-terminus assumed), in that order: 0.029 nM and 18.700%.
In the same order, the values of `CC[C@H](C)[C@H](NC(=O)[C@H](CCC(N)=O)NC(=O)[C@H](Cc1c[nH]cn1)NC(=O)[C@H](C)NC(=O)[C@H](CC(C)C)NC(=O)[C@H](Cc1c[nH]c2ccccc12)NC(=O)[C@H](CCC(N)=O)NC(=O)[C@@H](NC(=O)[C@@H](NC(=O)[C@@H]1CSSC[C@H](NC(=O)CN)C(=O)N[C@@H](CCCNC(=N)N)C(=O)N[C@@H](Cc2ccccc2)C(=O)NCC(=O)N[C@@H]([C@@H](C)O)C(=O)N1)[C@@H](C)O)C(C)C)C(=O)N[C@@H](Cc1ccc(O)cc1)C(=O)N[C@@H](CCC(N)=O)C(=O)N[C@@H](Cc1ccccc1)C(=O)N[C@H](C(=O)N[C@@H](CC(=O)O)C(=O)N[C@@H](CCCCN)C(=O)N[C@@H](CC(=O)O)C(=O)N[C@@H](CCCCN)C(=O)N[C@@H](CC(=O)O)C(=O)N[C@@H](CC(N)=O)C(=O)N[C@H](C(=O)N[C@@H](C)C(=O)N1CCC[C@H]1C(=O)N[C@@H](CCCNC(=N)N)C(=O)N[C@H](C(=O)N[C@@H](CCCCN)C(=O)N[C@H](C(=O)N[C@@H](CO)C(=O)N1CCC[C@H]1C(=O)N[C@@H](CC(N)=O)C(=O)NCC(=O)N1C[C@H](O)C[C@H]1C(N)=O)[C@@H](C)CC)[C@@H](C)O)C(C)C)[C@@H](C)O` [compound 337] (H-GCRFGTCTVQWLAHQIYQFTDKDKDNVAPRTKISPNG[Hyp]-NH2; disulfide 2-7; N-terminus assumed) are 0.019 nM and 16.800%.
Consider `CC[C@H](C)[C@H](NC(=O)[C@H](CCC(N)=O)NC(=O)[C@H](Cc1c[nH]cn1)NC(=O)[C@H](C)NC(=O)[C@H](CC(C)C)NC(=O)[C@H](Cc1c[nH]c2ccccc12)NC(=O)[C@H](CCC(N)=O)NC(=O)[C@@H](NC(=O)[C@@H](NC(=O)[C@@H]1CSSC[C@H](NC(=O)CN)C(=O)N[C@@H](CCCNC(=N)N)C(=O)N[C@@H](Cc2ccccc2)C(=O)NCC(=O)N[C@@H]([C@@H](C)O)C(=O)N1)[C@@H](C)O)C(C)C)C(=O)N[C@@H](Cc1ccc(O)cc1)C(=O)N[C@@H](CCC(N)=O)C(=O)N[C@@H](Cc1ccccc1)C(=O)N[C@H](C(=O)N[C@@H](CC(=O)O)C(=O)N[C@@H](CCCCN)C(=O)N[C@@H](CC(=O)O)C(=O)N[C@@H](CCCCN)C(=O)N[C@@H](CC(=O)O)C(=O)N[C@@H](CC(N)=O)C(=O)N[C@H](C(=O)N[C@@H](C)C(=O)N1CCC[C@H]1C(=O)N[C@@H](CCCNC(=N)N)C(=O)N[C@H](C(=O)N[C@@H](CC(N)=O)C(=O)N[C@H](C(=O)N[C@@H](CO)C(=O)N1CCC[C@H]1C(=O)N[C@@H](CCC(N)=O)C(=O)NCC(=O)N[C@@H](Cc1ccc(O)cc1)C(N)=O)C(C)C)[C@@H](C)O)C(C)C)[C@@H](C)O` [compound 340] (H-GCRFGTCTVQWLAHQIYQFTDKDKDNVAPRTNVSPQGY-NH2; disulfide 2-7; N-terminus assumed), for which the EC50 on hAMY3 receptor is 0.022 nM. Besides, the “Max ThT signal (%)” value in data set [1] was 1.700%.
In the case of `CC[C@H](C)[C@H](NC(=O)[C@H](CCCCN)NC(=O)[C@@H](NC(=O)[C@H](CCCNC(=N)N)NC(=O)[C@@H]1CCCN1C(=O)[C@H](C)NC(=O)[C@@H](NC(=O)[C@H](CC(N)=O)NC(=O)[C@H](CC(=O)O)NC(=O)[C@H](CCCCN)NC(=O)[C@H](CC(=O)O)NC(=O)[C@H](CCCCN)NC(=O)[C@H](CC(=O)O)NC(=O)[C@@H](NC(=O)[C@H](Cc1ccccc1)NC(=O)[C@H](CCC(N)=O)NC(=O)[C@H](Cc1ccc(O)cc1)NC(=O)[C@@H](NC(=O)[C@H](CCC(N)=O)NC(=O)[C@H](Cc1c[nH]cn1)NC(=O)[C@H](C)NC(=O)[C@H](CC(C)C)NC(=O)[C@H](Cc1c[nH]c2ccccc12)NC(=O)[C@H](CCC(N)=O)NC(=O)[C@@H](NC(=O)[C@@H](NC(=O)[C@@H]1CSSC[C@H](NC(=O)CN)C(=O)N[C@@H](CCCNC(=N)N)C(=O)N[C@@H](Cc2ccccc2)C(=O)NCC(=O)N[C@@H]([C@@H](C)O)C(=O)N1)[C@@H](C)O)C(C)C)[C@@H](C)CC)[C@@H](C)O)C(C)C)[C@@H](C)O)C(=O)NCC(=O)N1CCC[C@H]1C(=O)N[C@@H](CC(N)=O)C(=O)NCC(=O)N1C[C@H](O)C[C@H]1C(N)=O` [compound 343] (H-GCRFGTCTVQWLAHQIYQFTDKDKDNVAPRTKIGPNG[Hyp]-NH2; disulfide 2-7; N-terminus assumed), the EC50 on hAMY3 receptor is 0.017 nM. The “Max ThT signal (%)” value in data set [1] was determined as 24.850%.
